Measured values as given in PMC10771423 (Applied Microbiology and Biotechnology, 2024).

Assays:
AldOTf [1] = molecular target: T1, AldOTf (Thermopolyspora flexuosa, UniProt A0A543IX60); experiment: oxygen consumption (oxygen electrode), steady-state kinetics; format: biochemical; settings: read-out: KM (mM) / Glycerol^b; 50 mM KPi pH 7.5, 25 °C, O2 as co-substrate
T1 construct: gene FHX40_1862
Description: oxygen consumption (oxygen electrode), steady-state kinetics on AldOTf

AldOTf [2] = molecular target: T1, AldOTf; experiment: HRP-coupled AAP/DCHBS H2O2 assay, […] nm, steady-state kinetics; format: biochemical; settings: read-out: KM (mM) / Xylitol^a; 50 mM KPi pH 7.5, 25 °C, O2 as co-substrate

T1 sequence (A0A543IX60 entry or part of it): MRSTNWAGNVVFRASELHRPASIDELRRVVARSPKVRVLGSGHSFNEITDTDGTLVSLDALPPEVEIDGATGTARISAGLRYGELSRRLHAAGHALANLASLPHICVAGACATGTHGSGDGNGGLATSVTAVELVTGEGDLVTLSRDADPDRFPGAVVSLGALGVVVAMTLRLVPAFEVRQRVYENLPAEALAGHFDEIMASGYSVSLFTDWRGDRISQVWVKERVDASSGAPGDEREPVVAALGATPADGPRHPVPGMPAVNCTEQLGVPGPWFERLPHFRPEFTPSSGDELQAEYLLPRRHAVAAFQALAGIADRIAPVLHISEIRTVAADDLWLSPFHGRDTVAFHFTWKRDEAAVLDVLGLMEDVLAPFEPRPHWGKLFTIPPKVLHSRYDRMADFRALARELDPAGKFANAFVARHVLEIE

| Km (AldOTf [1]) | Km (AldOTf [2]) | SMILES |
| --- | --- | --- |
| 41 mM | – | OCC(O)CO [glycerol] |
| – | 0.04 mM | OC[C@@H](O)[C@H](O)[C@@H](O)CO [xylitol] |
